According to paper PMC7918738, “Microtubule Destabilizing Sulfonamides as an Alternative to Taxane-Based Chemotherapy” (International Journal of Molecular Sciences, 2021):

Legend:
[1] = tested on: OVCAR-3 ovarian carcinoma cells; assay: Antiproliferative activity against OVCAR-3 (MTT); type: cell-based; conditions: Homo sapiens, 72 h
Protocol: The in vitro antiproliferative activity of compounds 38, 42, and 45 against a panel of five human ovarian carcinoma cell lines (SKOV3, IGROV-1, A2780, OVCAR-8, and OVCAR-3) was evaluated by a colorimetric method (Table 3) and compared with paclitaxel. […] For SKOV3, the potency reduction observed for paclitaxel together with a sustained or improved (42 with a 7 nM IC50 value) potency for MDS results in a more favorable profile of the MDS compared to paclitaxel.
MCF7 (human breast carcinoma), SKOV-3 (human ovarian carcinoma), OVCAR-3 (human ovarian carcinoma), OVCAR-8 (human ovarian carcinoma), and HeLa (human cervical carcinoma) cell lines were cultured in Dulbecco’s Modified Eagle’s Medium (DMEM) (Gibco, Thermo Fischer Scientific) containing 10% (v/v) heat-inactivated fetal bovine serum (HIFBS) (Lonza-Cambrex, Karlskoga, Sweden), 2 mM L-glutamine (Lonza-Cambrex, Karlskoga, Sweden), 100 μg/mL streptomycin, and 100 IU/mL penicillin (Lonza-Cambrex) at 37 °C in humidified 95% air and 5% CO2. […]
MCF7, HeLa, and HT-29 cell proliferation, when treated with the corresponding compounds, were determined using the XTT (sodium 3’-[1(phenylaminocarbonyl)-3,4-tetrazolium]-bis(4-methoxy-6-nitro)-benzenesulfonic acid hydrate) cell proliferation kit (Roche Molecular Biochemicals, Mannheim, Germany). […] The absorbance of the formazan product generated was measured at 450 nm using a multi-well plate reader. SKOV-3, OVCAR-3, OVCAR-8, IGROV-1, A-2780 cell proliferation, when treated with the corresponding compound, were determined using MTT (3-(4,5-dimethylthiazol-2-yl)-2,5-diphenyl-2H-tetrazolium bromide) (Sigma-Aldrich, St. Louis, MO, USA). […] Absorbance was measured at 570 nm in a plate reader (Ultra Evolution, Tecan, Männedorf, Suiza). […] After 24 h incubation, to allow cells to attach to the plates, all compounds were added at 1 µM concentration and the effect on the proliferation was evaluated 72 h post-treatment. […]

[2] = tested on: SKOV3 cells; assay: Cell cycle analysis in SKOV3 (PI staining, flow cytometry); type: cell-based, human; conditions: 38 600 nM, 42 50 nM, 45 400 nM; for SKOV3 cells at G2/M phase: 24 h
Protocol: (§1) The effect of the lead MDS on the cell cycle of MCF7, SKOV3, and HeLa cells was analyzed in time-course experiments at 24, 48, and 72 h post-treatment by DNA staining and flow cytometry quantification. The working concentration for each compound (600 nM for 38, 50 nM for 42, and 400 nM for 45) was established at the complete inhibition of cell proliferation in view of individually assays run in parallel for each cell line.
(§2) Cell cycle analysis was performed in MCF7, SKOV-3, and HeLa cells by quantifying the DNA content by flow cytometry. Cells in the exponential growth phase at 2·10^4 cells/mL were seeded in 24-well plates (1 mL/well). After 24 h incubation, cells were treated with different concentrations of the selected compounds and the effect of treated and untreated cells was measured 24, 48, and 72 h post-treatment. Live and dead cells were collected and fixed in ice-cold ethanol/PBS (7:3) and stored at 4 °C for later use. Cells were rehydrated with PBS, treated with 100 µg/mL RNase A (Sigma-Aldrich Co., St. Louis, MO, USA) and stained overnight in darkness at room temperature with 50 µg/mL PI (Sigma-Aldrich Co.). Cell cycle profiles were then analyzed by flow cytometry using BD Accuri™ C6 Plus Flow Cytometer (BD Biosciences, San José, CA, USA). Data were analyzed with BD Accuri™ C6 Software (version 1.0.264.21, BD Biosciences, San José, CA, USA) and compared to control cells. Compounds were dissolved in DMSO and the final solvent concentration never exceeded 0.5% (v/v). Control wells included cells with 0.5% (v/v) DMSO.

[3] = tested on: HeLa cells; assay: Cell cycle analysis in HeLa (PI staining, flow cytometry); type: cell-based, human; conditions: 24 h; 38 600 nM, 42 50 nM, 45 400 nM
Protocol: as §1, §2

## CNc1ccc(S(=O)(=O)N(C)c2cc(OC)c(OC)c(OC)c2)cc1 [Compound 38]
[1]
  IC50: 31 nM
[2]
  SKOV3 cells at G2/M phase: 44%
[2]; 48 h
  SKOV3 cells at SubG0/G1: 35%
[2]; 72 h
  SKOV3 cells at SubG0/G1: 43%
[3]
  HeLa cells at G2/M phase: 80%

## COc1ccc(S(=O)(=O)N(C)c2cc(OC)c(OC)c(OC)c2)cc1N [Compound 42]
[1]
  IC50: 72 nM
[2]
  SKOV3 cells at G2/M phase: 44%
[2]; 48 h
  SKOV3 cells at SubG0/G1: 34%
[2]; 72 h
  SKOV3 cells at SubG0/G1: 53%
[3]
  HeLa cells at G2/M phase: 44%

## COc1ccc(S(=O)(=O)N(Cc2ccccc2)c2cc(OC)c(OC)c(OC)c2)cc1N [Compound 45]
[1]
  IC50: 58 nM
[2]
  SKOV3 cells at G2/M phase: 44%
[2]; 48 h
  SKOV3 cells at SubG0/G1: 46%
[2]; 72 h
  SKOV3 cells at SubG0/G1: 63%
[3]
  HeLa cells at G2/M phase: 80%
